# Read-outs that look alike come from different tables or passages of the source.
# Tests used:
# COX-1 = COX-1 (Homo sapiens, UniProt P23219); conditions: in vivo
# Description: (§1) Study Design: This randomized, double-blind, placebo-controlled protocol was approved by the Institutional Review Board of the University of Pennsylvania Health System and by the Advisory Council of the General Clinical Research Center (University of Pennsylvania, Philadelphia). Written informed consent was obtained from all study volunteers. […] Routine hematology, biochemistry, and urinalysis were assessed at time of screening and at 24 hours after administration of the drugs on completion of the study.
# (§2) Measurements were performed immediately before the administration of drug (0 hrs) and 4 hours thereafter. […] A subset of the volunteers (n=5) progressed through the entire protocol on five occasions, each separated by two weeks, to assess intraindividual variability in drug response in five replicates.
# (§3) Statistical analysis: The primary response variables were: i) ex vivo COX-2 inhibition, expressed as the ratio of postdrug to predrug plasma PGE2; ii) ex vivo COX-1 inhibition, expressed as the ratio of postdrug to predrug serum TxB2; iii) urinary PGI-M inhibition, expressed as the ratio of concentration post drug to post placebo administration; iv) urinary Tx-M inhibition, expressed as the ratio of concentration post drug to post placebo administration; and v) plasma drug concentrations four hours post drug administration. […]
# COX-2 = COX-2 (Homo sapiens, UniProt P35354); conditions: in vivo
# Description: as §1, §2, §3
# [1] = Plasma drug concentrations by LC tandem MS; assay type: in vivo, human; conditions: for concentration at 4 h: human, plasma, 4 hours after dosing, single dose (rofecoxib 25 mg, celecoxib 200 mg)
# TxA2 formation = experiment: Urinary 11-dehydro TxB2 (Tx-M) in volunteers; assay type: in vivo, human
# Source text: (§4) Written informed consent was obtained from all study volunteers.
# (§5) The coefficients of variation for both assays were <10%.
# (§6) All variables were log transformed to approximate normality. Three extreme outlying datapoints were removed.
# [2] = patients receiving rofecoxib (25 mg/day), as early as one month; cited from earlier work
# PGI2 biosynthesis = experiment: Urinary 2,3-dinor-6-keto PGF1α (PGI-M) in volunteers; assay type: in vivo, human; conditions: single dose (rofecoxib 25 mg, celecoxib 200 mg), 4 hours
# Source text: as §4, §5, §6
# Chain of COX-2 (P35354 18-604): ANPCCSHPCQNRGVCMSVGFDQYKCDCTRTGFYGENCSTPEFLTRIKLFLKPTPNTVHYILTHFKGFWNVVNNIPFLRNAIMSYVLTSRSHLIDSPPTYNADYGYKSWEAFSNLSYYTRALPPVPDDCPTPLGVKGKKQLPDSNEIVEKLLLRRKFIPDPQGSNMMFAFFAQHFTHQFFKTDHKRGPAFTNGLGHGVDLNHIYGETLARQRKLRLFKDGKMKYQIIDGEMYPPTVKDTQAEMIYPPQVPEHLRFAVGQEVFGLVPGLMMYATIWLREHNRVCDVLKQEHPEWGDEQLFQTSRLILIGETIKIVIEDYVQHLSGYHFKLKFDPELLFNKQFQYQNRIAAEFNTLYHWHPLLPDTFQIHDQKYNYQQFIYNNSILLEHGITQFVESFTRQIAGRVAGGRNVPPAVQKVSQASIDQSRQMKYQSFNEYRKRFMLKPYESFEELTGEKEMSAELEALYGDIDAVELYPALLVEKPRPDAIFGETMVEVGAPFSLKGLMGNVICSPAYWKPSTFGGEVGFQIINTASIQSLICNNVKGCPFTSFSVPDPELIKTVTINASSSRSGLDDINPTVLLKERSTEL
# Chain of COX-1 (P23219 24-599): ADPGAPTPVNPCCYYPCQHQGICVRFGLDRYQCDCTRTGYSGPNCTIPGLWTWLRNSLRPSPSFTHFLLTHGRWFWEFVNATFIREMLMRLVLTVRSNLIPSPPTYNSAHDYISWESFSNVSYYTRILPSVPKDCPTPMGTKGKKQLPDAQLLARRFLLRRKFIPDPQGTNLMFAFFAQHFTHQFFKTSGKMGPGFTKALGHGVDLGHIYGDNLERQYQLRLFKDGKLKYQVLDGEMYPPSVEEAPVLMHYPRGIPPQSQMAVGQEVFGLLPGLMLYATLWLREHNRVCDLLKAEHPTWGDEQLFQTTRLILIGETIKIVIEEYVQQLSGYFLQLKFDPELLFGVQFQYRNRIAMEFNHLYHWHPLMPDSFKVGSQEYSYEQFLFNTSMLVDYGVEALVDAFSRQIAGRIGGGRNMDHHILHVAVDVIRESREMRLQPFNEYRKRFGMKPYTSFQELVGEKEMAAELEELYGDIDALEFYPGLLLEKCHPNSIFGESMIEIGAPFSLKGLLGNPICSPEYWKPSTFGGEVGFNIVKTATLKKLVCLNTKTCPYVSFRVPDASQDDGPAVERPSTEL
structure (smiles),measurement,setting,value
CS(=O)(=O)c1ccc(C2=C(c3ccccc3)C(=O)OC2)cc1 [rofecoxib],COX-1 derived serum TxB2,COX-1,failed to inhibit significantly
same,degree of inhibition of COX-2 dependent PGE2 formation ex vivo,COX-2,44.8%
same,concentration at 4 h,"[1]; read-out: plasma drug concentration, median",215 ng/mL
same,concentration at 4 h,"[1]; read-out: plasma drug concentration, range",115 to 658 ng/mL
same,drop in plasma concentration per unit increase in BMI,"[1]; rofecoxib 25 mg, 4 hours",about 2%
same,COX-1 inhibition in vivo (urinary Tx-M) in Pro17Leu variant of COX-1,TxA2 formation; rofecoxib 25 mg,absence of COX-1 inhibition in vivo
same,excretion of urinary Tx-M compared to placebo,"TxA2 formation; single dose (rofecoxib 25 mg, celecoxib 200 mg), 4 hours",not excretion of urinary Tx-M
same,elevation of blood pressure,[2],3-4 mm Hg
same,urinary PGI-M compared to placebo,PGI2 biosynthesis,depressed urinary PGI-M
